These results are taken from PMC3821043 (Biochemical pharmacology, 2012).

This experiment concerns the target T1, ABCG2 (breast cancer resistance protein) (Homo sapiens, UniProt Q9UNQ0).
T1 sequence (Q9UNQ0 1-655): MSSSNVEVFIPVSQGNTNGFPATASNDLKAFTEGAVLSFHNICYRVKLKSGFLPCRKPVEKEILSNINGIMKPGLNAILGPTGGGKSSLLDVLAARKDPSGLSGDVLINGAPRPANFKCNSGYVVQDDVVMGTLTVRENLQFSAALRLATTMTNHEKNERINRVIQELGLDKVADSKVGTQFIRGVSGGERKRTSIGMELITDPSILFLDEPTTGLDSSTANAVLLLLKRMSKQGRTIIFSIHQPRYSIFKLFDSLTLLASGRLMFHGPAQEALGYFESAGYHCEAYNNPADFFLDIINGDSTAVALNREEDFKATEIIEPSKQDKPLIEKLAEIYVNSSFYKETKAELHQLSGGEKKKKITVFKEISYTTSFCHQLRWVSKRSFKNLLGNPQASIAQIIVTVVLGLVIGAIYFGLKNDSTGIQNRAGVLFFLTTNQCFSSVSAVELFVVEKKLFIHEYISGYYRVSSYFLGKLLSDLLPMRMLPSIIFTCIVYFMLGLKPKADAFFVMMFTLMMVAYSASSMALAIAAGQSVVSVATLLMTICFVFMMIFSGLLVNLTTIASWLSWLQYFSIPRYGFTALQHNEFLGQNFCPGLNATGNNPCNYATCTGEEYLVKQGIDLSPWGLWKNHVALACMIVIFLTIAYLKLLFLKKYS
The experiment is described as follows: competition of […]IAAP photoaffinity labeling. The class given is binding.

`CN1CCC(CNc2ccc3ncc(-c4cccc(OC(F)(F)F)c4)n3n2)CC1` [SGI-1776] had an IC50 of 90 nM.
